The source of these data is US5527781A, “4-O-(aminoglycosyl)- or 4,6-di-O-(aminoglycosyl)-2,5-dideoxy-5,5-difluorostreptamine derivatives” (Zaidan Hojin Biseibutsu Kagaku Kenkyu Kai, priority 1990, dated 1996).

One series deals with bacteria. To be noted: literature / earlier filings; cited from earlier work.
Series [1] deals with Staphylococcus aureus 209P. Briefly: MIC, standard serial dilution method. The series is classed as cell-based. To be noted: Mueller-Hinton agar, 37° C.
Series [2] concerns Staphylococcus aureus Ap01. The experiment in a line: MIC, standard serial dilution method. The settings on record: resistance mechanism ANT(4'), Mueller-Hinton agar, 37° C. The series is classed as cell-based.
Another series relates to Bacillus subtilis PCI219. Briefly: MIC, standard serial dilution method. The series is classed as cell-based. To be noted: Mueller-Hinton agar, 37° C.
Series [3] has as its system Corynebacterium bovis 1810. Briefly: MIC, standard serial dilution method. The series is classed as cell-based. The settings on record: Mueller-Hinton agar, 37° C.
The test system of another series is Escherichia coli K-12. The experiment in a line: MIC, standard serial dilution method. Type of series: cell-based. The settings on record: K12; Escherichia coli K-12; Mueller-Hinton agar, 37° C; read-out: MIC.
Another series deals with Escherichia coli K-12 R5. Briefly: microbe, parasite or virus in culture. The series is classed as cell-based. To be noted: K12R5; Escherichia coli K-12 R5; resistance mechanism AAC(6'); Mueller-Hinton agar, 37° C.
Series [4] deals with Escherichia coli K-12 ML 1629. The experiment in a line: microbe, parasite or virus in culture. Type of series: cell-based. To be noted: Escherichia coli, K12ML1629.
For series [5], the system named is Escherichia coli K-12 LA 290 R55. The experiment in a line: microbe, parasite or virus in culture. The series is classed as cell-based. To be noted: Escherichia coli, K12LA290R55.
The subject of the next series is Escherichia coli JR225. The experiment in a line: microbe, parasite or virus in culture. Type of series: cell-based. The settings on record: resistance mechanism AAC(3), Mueller-Hinton agar, 37° C.
The subject of series [6] is Escherichia coli JR66/W677. The experiment in a line: microbe, parasite or virus in culture. Type of series: cell-based. To be noted: resistance mechanism APH(3')-II, ANT(2"), Mueller-Hinton agar, 37° C.
The subject of another series is Mycobacterium 607. The experiment in a line: MIC, standard serial dilution method. Type of series: cell-based. To be noted: Mueller-Hinton agar, 37° C.
The subject of series [7] is Klebsiella pneumoniae 22#3038. The experiment in a line: MIC, standard serial dilution method. Type of series: cell-based. The settings on record: resistance mechanism APH(3')-II, ANT(2"), Mueller-Hinton agar, 37° C.
In the next series the test system is Proteus rettgeri GN 311. The experiment in a line: MIC, standard serial dilution method. Type of series: cell-based. To be noted: Providencia rettgeri, GN311; Proteus rettgeri GN 311; Mueller-Hinton agar, 37° C; read-out: MIC.
Another series deals with Serratia marcescens. Briefly: MIC, standard serial dilution method. Type of series: cell-based. To be noted: Mueller-Hinton agar, 37° C.
The subject of another series is Providencia sp. Pv 16. Briefly: MIC, standard serial dilution method. Type of series: cell-based. To be noted: SP.PV16, resistance mechanism AAC(2'), Mueller-Hinton agar, 37° C.
Series [8] concerns Pseudomonas aeruginosa A3. The experiment in a line: MIC, standard serial dilution method. The series is classed as cell-based. The settings on record: Mueller-Hinton agar, 37° C.
The subject of series [9] is Pseudomonas aeruginosa GN 315. The experiment in a line: MIC, standard serial dilution method. The series is classed as cell-based. The settings on record: GN315; Pseudomonas aeruginosa GN 315; resistance mechanism AAC(6'); Mueller-Hinton agar, 37° C; read-out: MIC.
A short description of the next series: in vivo. The settings on record: mouse, iv, pH 7. From the text: Further, in order to estimate acute toxicity of the compound of the general formula (I) according to this invention, some examples of the compounds of this invention were independently dissolved in water to prepare aqueous solutions (as adjusted to pH 7 by addition of hydrochloric acid). […] The tested compounds of this invention are expressed by the same abbreviations as in Table 1. […] The comparative compounds as tested are also expressed by the same abbreviations as in Table 1.

Values after ≈ are worked out from the molar mass of the structure shown.

As to `NC[C@H]1O[C@H](O[C@H]2[C@H](O)[C@@H](O[C@H]3O[C@H](CO)[C@H](F)[C@H](N)[C@H]3O)[C@H](N)C[C@@H]2N)[C@H](O)[C@@H](O)[C@@H]1O` [4"-deoxy-4"-fluoro-4"-epi-kanamycin A], the “antibacterial activity compared with parent (e.g. kanamycin A)” value in the series on bacteria is “lower than that of kanamycin A”.
For the molecule `NC[C@@H]1C[C@H](F)[C@@H](N)[C@@H](O[C@H]2[C@H](O)[C@@H](O[C@H]3O[C@H](CO)[C@@H](O)[C@H](N)[C@H]3O)[C@H](N)C[C@@H]2N)O1` [3',4'-dideoxy-3'-fluorokanamycin B], in the series with bacteria, the “antibacterial activity compared with parent (e.g. kanamycin A)” value was “improved antibacterial activities, as compared to those of their corresponding parent compounds”.
On to `NC[C@H]1O[C@H](O[C@H]2[C@H](O)[C@@H](O[C@H]3O[C@H](CF)[C@@H](O)[C@H](N)[C@H]3O)[C@H](N)C[C@@H]2N)[C@H](O)[C@@H](O)[C@@H]1O` [6"-deoxy-6"-fluorokanamycin A], for which the “antibacterial activity compared with parent (e.g. kanamycin A)” value with bacteria is on record as “antibacterial activities substantially as high as that of kanamycin A”.
Regarding `NC[C@H]1O[C@H](O[C@H]2[C@H](O)[C@@H](O[C@H]3O[C@H](CO)[C@@H](O)[C@H](N)[C@H]3O)[C@H](N)C[C@@H]2N)[C@H](F)C[C@@H]1O` [2',3'-dideoxy-2'-fluorokanamycin A], in the series with bacteria, the “antibacterial activity compared with parent (e.g. kanamycin A)” value is given as “improved antibacterial activities, as compared to those of their corresponding parent compounds”.
Regarding `NC[C@H]1O[C@H](O[C@@H]2[C@@H](N)C[C@@H](N)[C@H](O[C@H]3O[C@H](CO)[C@@H](O)[C@H](N)[C@H]3O)C2(F)F)[C@H](N)C[C@@H]1O` [Compound 5FF-TOB, 5-deoxy-5,5-difluorotobramycin], the MIC in series [1] turned out to be 0.39 µg/mL (≈ 0.8 µM); in series [2], 25 µg/mL (≈ 51.3 µM); against Bacillus subtilis PCI219, 0.39 µg/mL (≈ 0.8 µM); in series [3], 1.56 µg/mL (≈ 3.2 µM); with Escherichia coli K-12, 0.39 µg/mL (≈ 0.8 µM); in the series on Escherichia coli K-12 R5, 25 µg/mL (≈ 51.3 µM). Moreover, the MIC in series [4] was 0.78 µg/mL (≈ 1.6 µM); in series [5] it was 0.78 µg/mL (≈ 1.6 µM); against Escherichia coli JR225 it was 0.39 µg/mL (≈ 0.8 µM); in series [6], 1.56 µg/mL (≈ 3.2 µM); in the series on Mycobacterium 607, 0.39 µg/mL (≈ 0.8 µM); in series [7] it was 0.78 µg/mL (≈ 1.6 µM). In addition, the MIC is < 0.2 µg/mL in the series on Proteus rettgeri GN 311; 3.12 µg/mL (≈ 6.4 µM) against Serratia marcescens; 12.5 µg/mL (≈ 25.6 µM) against Providencia sp. Pv 16; < 0.2 µg/mL in [8]; 100 µg/mL (≈ 205 µM) in series [9]. Besides, in “in vivo”, the median lethal dose (LD50) (usually the dose expected to kill half of the subjects tested) came out at 260 mg/kg.
